The text below walks through data of PubChem BioAssay (NCI).

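Briefly, cells in 96-well plates were exposed to five compound concentrations for 48 h, and endpoints were estimated by linear interpolation. GI50 = concentration required for 50% inhibition of growth. TGI: concentration producing complete growth inhibition.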

Among the test systems are A549 NSCLC; BT-549 breast; LOX IMVI melanoma; MDA-MB-231 breast; NCI-H522 lung; RXF 393 renal; SK-MEL-2 melanoma; SNB-19 CNS; SNB-75 CNS; UACC-62 melanoma.
Common to all, as to assay: NCI anticancer screen, dose series, 48 h

On to `C[C@H](O)C(=O)N1CCC(CCn2c(Sc3cc4c(cc3Br)OCO4)nc3c(N)ncnc32)CC1`, for which the GI50 with A549 NSCLC was 0.869 µM; in the assay on BT-549 breast, 1.93 µM; in the assay with LOX IMVI melanoma, 0.596 µM; with MDA-MB-231 breast, 1.46 µM; with NCI-H522 lung it was 0.791 µM; with RXF 393 renal, 2.57 µM. The GI50 is 4.63 µM in the assay with SK-MEL-2 melanoma, 3.7 µM with SNB-19 CNS, 9.04 µM in the assay with SNB-75 CNS and 0.862 µM in the assay on UACC-62 melanoma. Besides, the TGI in the assay on A549 NSCLC was above 100 µM; in the assay with BT-549 breast, above 100 µM; with LOX IMVI melanoma, 6.9 µM; in the assay on MDA-MB-231 breast, 31.9 µM; with NCI-H522 lung it was above 52.2 µM; in the assay with RXF 393 renal, above 31.6 µM. The TGI with SK-MEL-2 melanoma, with SNB-19 CNS and in the assay on SNB-75 CNS was above 100 µM in each case.

Consider `C/C(N=NC(=S)N(C)C)=C1\C=CC=CN1O`, for which the TGI with A549 NSCLC is above 100 µM; in the assay on BT-549 breast, above 100 µM; in the assay on LOX IMVI melanoma, above 100 µM; in the assay on MDA-MB-231 breast it was above 100 µM; in the assay on NCI-H522 lung it was above 56.2 µM; in the assay with RXF 393 renal, above 100 µM. In addition, the TGI was above 56.2 µM with SK-MEL-2 melanoma, above 100 µM in the assay on SNB-19 CNS, above 100 µM in the assay on SNB-75 CNS and above 93 µM in the assay on UACC-62 melanoma.

For the molecule `CCn1c(SCc2ccc(C)cc2)nnc1-c1nn(-c2ccc(Cl)cc2Cl)c(-c2ccc(Cl)cc2)c1C`, the GI50 in the assay on A549 NSCLC is 2.82 µM; in the assay on BT-549 breast, 1.79 µM; with LOX IMVI melanoma, 2.72 µM; with MDA-MB-231 breast, 2.35 µM; with NCI-H522 lung, 1.35 µM; in the assay with RXF 393 renal it was 2.69 µM. The GI50 in the assay on SK-MEL-2 melanoma was 3.01 µM; with SNB-19 CNS, 2.3 µM; in the assay with SNB-75 CNS, 2.21 µM; with UACC-62 melanoma, 2.02 µM. Besides, the TGI in the assay with A549 NSCLC turned out to be 11.3 µM; in the assay on BT-549 breast, 5.75 µM; in the assay with LOX IMVI melanoma it was 10.7 µM; in the assay with MDA-MB-231 breast, 8.54 µM; with NCI-H522 lung, 5.2 µM; with RXF 393 renal, 10.9 µM. Besides, the TGI was determined as 12.5 µM in the assay with SK-MEL-2 melanoma, 13.3 µM with SNB-19 CNS, 11.7 µM with SNB-75 CNS and 10.6 µM in the assay on UACC-62 melanoma.

As to `O=C1NC(=O)C(CC2CCCCCCCCCCC2=O)C(=O)N1` (centres undefined), the TGI in the assay on A549 NSCLC, in the assay with BT-549 breast, in the assay on LOX IMVI melanoma, with MDA-MB-231 breast, in the assay with NCI-H522 lung and in the assay with RXF 393 renal was above 100 µM in each case. Further, the TGI with SK-MEL-2 melanoma, with SNB-19 CNS, with SNB-75 CNS and in the assay on UACC-62 melanoma was above 100 µM in each case.

With `CN(C)CCN1C(=O)c2ccc3c4c(ccc(c24)C1=O)C(=O)N(CCN=C=S)C3=O`, the GI50 in the assay with A549 NSCLC is 0.0739 µM; with BT-549 breast, 0.129 µM; in the assay on LOX IMVI melanoma, 0.0352 µM; in the assay on MDA-MB-231 breast it was 0.0942 µM; in the assay on NCI-H522 lung it was 0.0311 µM; with RXF 393 renal it was 0.0416 µM. Further, the GI50 is 0.0563 µM with SK-MEL-2 melanoma, 0.0954 µM in the assay on SNB-19 CNS, 0.058 µM with SNB-75 CNS and 0.071 µM with UACC-62 melanoma. The TGI with A549 NSCLC was 0.252 µM; with BT-549 breast, 0.297 µM; in the assay on LOX IMVI melanoma it was 0.127 µM; in the assay on MDA-MB-231 breast, 0.352 µM; in the assay with NCI-H522 lung, 0.145 µM; with RXF 393 renal it was 0.177 µM. Further, the TGI in the assay with SK-MEL-2 melanoma worked out at 0.225 µM; in the assay on SNB-19 CNS it was 0.596 µM; in the assay on SNB-75 CNS, 0.198 µM; with UACC-62 melanoma, 0.211 µM.

For `CC/C=C\C[C@H]1C/C=C2/C(=O)C=C[C@@H]2C/C=C\CCCC(=O)O1`, the GI50 in the assay on A549 NSCLC is 2.23 µM; with BT-549 breast, 0.674 µM; in the assay with LOX IMVI melanoma, 0.273 µM; in the assay with MDA-MB-231 breast, 2.76 µM; in the assay with NCI-H522 lung, 0.57 µM; in the assay on RXF 393 renal, 1.57 µM. The GI50 in the assay on SK-MEL-2 melanoma was 1.86 µM; in the assay on SNB-19 CNS, 2.09 µM; in the assay with SNB-75 CNS, 4.02 µM; with UACC-62 melanoma it was 0.573 µM. The TGI in the assay with A549 NSCLC is 9.05 µM; with BT-549 breast, 3.22 µM; in the assay on LOX IMVI melanoma, 0.865 µM; in the assay on MDA-MB-231 breast, 13.2 µM; with NCI-H522 lung, 2.45 µM; with RXF 393 renal, 3.1 µM. The TGI in the assay with SK-MEL-2 melanoma is 4.87 µM; with SNB-19 CNS it was 11.7 µM; in the assay on SNB-75 CNS it was 18 µM; in the assay on UACC-62 melanoma, 2.37 µM.

In the case of `C=C1C(=O)OC2/C=C(\COC(C)=O)CCC(OC(C)=O)C3=CC(OC3=O)C12` (centres undefined), the TGI with A549 NSCLC is 43 µM; in the assay on BT-549 breast, 22.6 µM; in the assay with LOX IMVI melanoma, 19 µM; in the assay on MDA-MB-231 breast, 41.7 µM; with NCI-H522 lung it was 1.14 µM; with RXF 393 renal it was 3.28 µM. Moreover, the TGI with SK-MEL-2 melanoma was found to be 14.7 µM; in the assay with SNB-19 CNS, 36.3 µM; in the assay with SNB-75 CNS, 35.6 µM; in the assay with UACC-62 melanoma, 17.6 µM.

With `COc1cc(/C=C/c2ccc(OC)c(OC)c2)cc(OC)c1`, the TGI in the assay on A549 NSCLC was above 100 µM; with BT-549 breast, 72.3 µM; in the assay with LOX IMVI melanoma, 41.8 µM; in the assay on MDA-MB-231 breast, 52 µM; with NCI-H522 lung, 66.4 µM; in the assay with RXF 393 renal it was 50 µM. The TGI in the assay on SK-MEL-2 melanoma is above 100 µM; in the assay with SNB-19 CNS it was above 100 µM; in the assay on SNB-75 CNS, above 100 µM; with UACC-62 melanoma, 63.5 µM.

As for `CC1=C(C(=O)Nc2ccc(F)c(Cl)c2)C(c2cccc(O)c2)NC(=O)N1` (centres undefined), the GI50 is above 100 µM in the assay on A549 NSCLC; 67 µM in the assay with BT-549 breast; above 100 µM in the assay with LOX IMVI melanoma; 46.2 µM in the assay with MDA-MB-231 breast; 49 µM in the assay on NCI-H522 lung; above 100 µM in the assay with RXF 393 renal. Moreover, the GI50 in the assay on SK-MEL-2 melanoma was 29.5 µM; with SNB-19 CNS, above 100 µM; in the assay with SNB-75 CNS, 17.8 µM; in the assay with UACC-62 melanoma, 48.7 µM. The TGI with A549 NSCLC, with BT-549 breast, in the assay with LOX IMVI melanoma, with MDA-MB-231 breast, in the assay on NCI-H522 lung and in the assay on RXF 393 renal was above 100 µM throughout. Also, the TGI with SK-MEL-2 melanoma was above 100 µM; in the assay on SNB-19 CNS it was above 100 µM; with SNB-75 CNS, 68.3 µM; with UACC-62 melanoma, above 100 µM.
